Data published in patent publication US20080019909A1, “Modulation of Programmed Necrosis” (priority 2003, published 2008).
Entries after “also recorded” stand apart in the source; their conditions may differ.

Columns and labels:
[1] = test system: RIP; experiment: Western blot of RIP protein expression in cells treated with GA; assay type: cell-based
[2] = test system: TNFR-2+ RIP -/- Jurkat cells (R1.1); experiment: TNF cytotoxic assay (cell loss by PI exclusion on FACS), TNFR-2+ RIP -/- cells; assay type: cell-based; details: for TNF-induced death (cell loss): TNFR-2+ RIP -/- cells (R1.1), 10 ng/ml rhTNFα, 16 hours
Excerpt: The results are representative of three experiments.

[3] = test system: TNFR-2-expressing wild-type (4E3) Jurkat cells
Method: Cells were harvested and analyzed by PI exclusion on FACS 16 hours post-stimulation and cell loss was calculated as described in Example 1 (infra).

[4] = test system: RIP; experiment: Western blot of RIP cleavage in TNF or anti-Fas stimulated wild-type 4E3 cells; assay type: cell-based; details: six hours, C-terminal specific RIP antibody
Method: FIG. 4A is a Western blot showing the results of experiments in which wild-type 4E3 cells (WT) and J3.2 cells (Casp-8 -/-) cells Were treated with various combinations of rhTNFα, Apo-1 (anti-Fas), and zVAD-fmk for six hours before whole cell lysates were harvested.

[5] = test system: FADD -/- I42 cells; experiment: TNF cytotoxic assay (cell loss by PI exclusion on FACS), FADD -/- I42 cells; assay type: cell-based; details: FADD -/- I42 cells; TNF 16 hours; zVAD-fmk or GA
Method: Cells were stimulated with, TNF or anti-Fas antibody (CH11) for 12 hours and cell loss was analyzed on the GFP+ cells by PI exclusion on FACS.
FIG. 8F is a bar graph depicting the results of experiments in which FADD -/- I42 cells and caspase-8 -/- J3.2 cells (both are TNFR-2+) were stimulated with TNF in the presence or absence of zVAD-fmk for 16 hours.

[6] = test system: caspase-8 -/- J3.2 cells; experiment: TNF cytotoxic assay (cell loss by PI exclusion on FACS), caspase-8 -/- J3.2 cells; details: caspase-8 -/- J3.2 cells; rhTNF 15-16 hours; zVAD-fmk or 0.5 mM GA pretreatment

| Compound | reduction in RIP protein level [1] [%] | TNF-induced death (cell loss) ([2]; or 0.5 mM GA) | cell viability, compound alone [3] | RIP cleavage [4] | TNF-induced death (cell loss) ([2]; 50 mM zVAD-fmk or 0.5 mM GA) | TNF killing restored by K45A or RIPc, in the presence of zVAD-fmk ([2]; TNFR-2+ RIP -/- cells reconstituted with kinase inactive (K45A) RIP or RIPc) | TNF-induced programmed necrosis (cell loss) [5] | TNF-induced death (cell loss), zVAD-fmk plus GA together ([3]; wild-type 4E3 cells, 10 ng/ml rhTNFα with zVAD-fmk plus GA, 16 hours) | TNF-induced death (cell loss), single agent ([3]; wild-type 4E3 cells, 10 ng/ml rhTNFα, 16 hours, or 0.5 mM GA) | TNF-induced programmed necrosis (cell loss) [6] |
| --- | --- | --- | --- | --- | --- | --- | --- | --- | --- | --- |
| COC1=C2C[C@@H](C)C[C@H](OC)[C@H](O)[C@@H](C)/C=C(\C)[C@H](OC(N)=O)[C@@H](OC)/C=C\C=C(/C)C(=O)NC(=CC1=O)C2=O [geldanamycin] | > 90 | no effect | no effect | – | – | – | – | – | – | – |
| z-Val-Ala-Asp-fluoromethyl ketone [zVAD-fmk] | – | – | no effect | potently inhibited | completely inhibited | potently inhibited | failed to provide any protection; also recorded: not blocked | synergized to completely suppress | partial protective effect | failed to provide any protection; also recorded: not blocked |
